Laboratory results from paper PMC7271024, “N1-Benzofused Modification of Fluoroquinolones Reduces Activity Against Gram-Negative Bacteria” (ACS Omega, 2020).
In brackets after ≈: the same amount, converted by molar mass.

Tests used:
P. aeruginosa PAO1 = test: MIC, microdilution broth method; type: cell-based, Pseudomonas aeruginosa; conditions: for MIC: Pseudomonas aeruginosa, ciprofloxacin-sensitive strain (S)
A. baumannii AYE = test: MIC, microdilution broth method; type: cell-based, Acinetobacter baumannii; conditions: for MIC: Acinetobacter baumannii
Procedure: (§1) The antibacterial activities of the synthesized fluoroquinolones were evaluated against a panel of Gram-negative pathogens including K. pneumoniae (NCTC 13368, M6), Acinetobacter baumannii (AYE, ATCC 17978), Pseudomonas aeruginosa (PAO1, NCTC 13437), and Escherichia coli (NCTC 12923, LEC001). The ability of molecules to permeate the Gram-negative outer membrane was investigated by adding membrane permeabilizer polymyxin B nonapeptide (PMBN) at sub-inhibitory concentrations (Table 2). Phenylalanine–arginine β-naphthylamide (PAβN) was used to investigate efflux of compounds by resistance–nodulation–division (RND)-family efflux pumps (Table 3).
(§2) Minimal inhibitory concentrations (MICs) were determined using the microdilution broth method. Briefly, compounds were added to the first two columns of a 96-well plate and diluted two-fold down the plate in tryptic soy broth. Overnight cultures of bacteria were then adjusted to a concentration of 1 × 10^6 CFU/mL and added to each well for a final concentration of 5 × 10^5 CFU/mL.

P. aeruginosa NCTC 13437 = test: MIC, microdilution broth method; type: cell-based, Pseudomonas aeruginosa; conditions: Pseudomonas aeruginosa
Procedure: as §1, §2

E. coli NCTC 12923 = test: MIC, microdilution broth method; type: cell-based, Escherichia coli; conditions: for MIC: Escherichia coli, ciprofloxacin-sensitive strain (S)
A. baumannii ATCC 17978 = test: MIC, microdilution broth method; type: cell-based, Acinetobacter baumannii; conditions: for MIC: Acinetobacter baumannii, ciprofloxacin-sensitive strain (S); for potentiation of MIC by PMBN: MIC –PMBN vs +PMBN
K. pneumoniae NCTC 13368 = test: MIC, microdilution broth method; type: cell-based, Klebsiella pneumoniae; conditions: for MIC: Klebsiella pneumoniae, ciprofloxacin-resistant strain (R)
Procedure: as §1, §2

[1] = system: panel of Gram-negative pathogens; test: MIC panel, statements across strains; type: cell-based, K. pneumoniae, A. baumannii, P. aeruginosa, E. coli; conditions: versus ciprofloxacin
Procedure: as §1, §2

K. pneumoniae M6 = test: MIC, microdilution broth method; type: cell-based, Klebsiella pneumoniae; conditions: for MIC: Klebsiella pneumoniae, ciprofloxacin-sensitive strain (S); for potentiation of MIC by PMBN: MIC –PMBN vs +PMBN
E. coli LEC001 = test: MIC, microdilution broth method; type: cell-based, Escherichia coli; conditions: for MIC: Escherichia coli
Procedure: as §1, §2

[2] = +PMBN (30 μg/mL), ciprofloxacin-resistant strain (R)
[3] = –PMBN, ciprofloxacin-resistant strain (R)
[4] = NCTC13437, +PMBN (30 μg/mL), ciprofloxacin-resistant strain (R)
[5] = NCTC13437, –PMBN, ciprofloxacin-resistant strain (R)
[6] = LEC001, +PMBN (30 μg/mL), ciprofloxacin-resistant strain (R)
[7] = LEC001, –PMBN, ciprofloxacin-resistant strain (R)
[8] = PAβN, text names A. baumannii only

Compound	MIC (P. aeruginosa PAO1; PAO1, +PMBN (30 μg/mL))	MIC (P. aeruginosa PAO1; PAO1, –PMBN)	MIC (A. baumannii AYE; [2])	MIC (A. baumannii AYE; [3])	MIC (P. aeruginosa NCTC 13437; [4])	MIC (P. aeruginosa NCTC 13437; [5])	MIC (E. coli NCTC 12923; NCTC12923, +PMBN (30 μg/mL))	MIC (E. coli NCTC 12923; NCTC12923, –PMBN)	MIC (A. baumannii ATCC 17978; ATCC17978, +PMBN (30 μg/mL))	MIC (A. baumannii ATCC 17978; ATCC17978, –PMBN)	potentiation of MIC by PMBN (A. baumannii ATCC 17978)	MIC (K. pneumoniae NCTC 13368; NCTC13368, +PMBN (30 μg/mL))	MIC (K. pneumoniae NCTC 13368; NCTC13368, –PMBN)	antibacterial activity [1]	MIC (K. pneumoniae M6; M6, +PMBN (30 μg/mL))	MIC (K. pneumoniae M6; M6, –PMBN)	potentiation of MIC by PMBN (K. pneumoniae M6)	MIC (E. coli LEC001; [6])	MIC (E. coli LEC001; [7])	further results
O=C(O)c1cn(-c2cccc3ccoc23)c2cc(N3CCNCC3)c(F)cc2c1=O [Compound 6d]	0.5 µg/mL (≈ 1.23 µM)	8 to 16 µg/mL (≈ 19.6 to 39.3 µM)	> 32 µg/mL	> 32 µg/mL	32 µg/mL (≈ 78.5 µM)	> 32 µg/mL	0.25 µg/mL (≈ 0.614 µM)	1 µg/mL (≈ 2.45 µM)	1 µg/mL (≈ 2.45 µM)	2 µg/mL (≈ 4.91 µM)	2 fold	2 µg/mL (≈ 4.91 µM)	16 µg/mL (≈ 39.3 µM)	limited activity	0.5 µg/mL (≈ 1.23 µM)	1 to 2 µg/mL (≈ 2.45 to 4.91 µM)	2–4 fold	> 32 µg/mL	> 32 µg/mL	potentiation of MIC by PMBN (K. pneumoniae NCTC 13368; MIC –PMBN vs +PMBN): 4–8 fold
O=C(O)c1cn(Cc2ccccc2)c2cc(N3CCNCC3)c(F)cc2c1=O [Compound 6c]	0.5 µg/mL (≈ 1.31 µM)	8 µg/mL (≈ 21 µM)	> 32 µg/mL	> 32 µg/mL	32 µg/mL (≈ 83.9 µM)	> 32 µg/mL	0.5 µg/mL (≈ 1.31 µM)	1 to 2 µg/mL (≈ 2.62 to 5.24 µM)	4 µg/mL (≈ 10.5 µM)	4 to 8 µg/mL (≈ 10.5 to 21 µM)		4 µg/mL (≈ 10.5 µM)	16 µg/mL (≈ 41.9 µM)	limited activity	1 µg/mL (≈ 2.62 µM)	1 µg/mL (≈ 2.62 µM)		> 32 µg/mL	> 32 µg/mL	
O=C(O)c1cn(C2CC2)c2cc(N3CCNCC3)c(F)cc2c1=O [Compound 6a, ciprofloxacin, reference compound]			> 32 µg/mL	> 32 µg/mL	16 µg/mL (≈ 48.3 µM)	> 32 µg/mL	0.03 to 0.06 µg/mL (≈ 0.0905 to 0.181 µM)	≤ 0.03 µg/mL	0.5 µg/mL (≈ 1.51 µM)	0.5 µg/mL (≈ 1.51 µM)	1–2 fold						1 fold	32 µg/mL (≈ 96.6 µM)	16 µg/mL (≈ 48.3 µM)	potentiation of MIC by PMBN (P. aeruginosa PAO1; MIC –PMBN vs +PMBN): 4–16 fold; MIC (A. baumannii AYE; +PAβN (25 μg/mL), Table 3, strain R): > 32 µg/mL; MIC (A. baumannii AYE; –PAβN, Table 3, strain R): 32 µg/mL (≈ 96.6 µM); effect of PAβN on MIC (A. baumannii AYE; [8]): Neither ciprofloxacin nor compound 6e showed any difference in MIC; MIC (P. aeruginosa NCTC 13437; NCTC13437, +PAβN (25 μg/mL), Table 3, strain R): 16 µg/mL (≈ 48.3 µM); MIC (P. aeruginosa NCTC 13437; NCTC13437, –PAβN, Table 3, strain R): 32 µg/mL (≈ 96.6 µM); effect of PAβN on MIC (E. coli NCTC 12923; PAβN, text names E. coli only): No effect; effect of PAβN on MIC (A. baumannii ATCC 17978; [8]): Neither ciprofloxacin nor compound 6e showed any difference in MIC; effect of PAβN on MIC (K. pneumoniae M6; RND-family efflux inhibitor PAβN): not evident; MIC (E. coli LEC001; LEC001, +PAβN (25 μg/mL), Table 3, strain R): 32 µg/mL (≈ 96.6 µM); MIC (E. coli LEC001; LEC001, –PAβN, Table 3, strain R): 16 µg/mL (≈ 48.3 µM); effect of PAβN on MIC (E. coli LEC001; PAβN, text names E. coli only): No effect
